Structures can show the parent of a compound that is named as a salt. Where two headings read alike, the source gives them in different places.
Columns and labels:
[1] = test system: P. aeruginosa biofilms; assay: continuous flow chamber biofilm, 3-day-old, harvested and plated for viability; format: cell-based, P. aeruginosa PAO1; settings: for eradication of mature biofilm (viability on LB plates): 24 hours
From the text: (§1) The wild-type P. aeruginosa PAO1 used for the planktonic and biofilm experiments was obtained from the Pseudomonas Genetic Stock Center (www.pseudomonas.med.ecu.edu, strain PAO0001). The wild-type S. aureus 8325-4, used for planktonic and biofilm experiments was described by Novick, R. P. 1967. For plating, Luria broth (LB) medium mix with 2.0% agar was used. For all experiments including bacterial biofilms, AB minimal medium supplemented with glucose was used except if different is mentioned. […] The continuous flow system is based on once through flow chambers perfused with sterile AB minimal medium containing 0.3 mM glucose as described by Christensen et al. (1999). Continuous flow biofilm tolerance to acetic acid was assessed by growing P. aeruginosa or S. aureus biofilms for three days, then subsequently at day three to four supplementing the AB minimal medium with different concentrations of acetic acid or HCl (HCL served as a as control to acetic acid treatments). […] Due to the buffer capacity of the AB minimal medium used, the pH of the solution became 4.33. […] After the treatment the biofilm biomasses were harvested mechanically from the flow chambers and plated on LB plates for determination of viability. […] The kinetics of antimicrobial activity against mature biofilms was tested by treating a 3-day-old continuous flow chamber biofilms of either P. aeruginosa with 0.5% or S. aureus with 1.0% acetic acid for 24 hours. Due to the buffer capacity of the AB minimal medium used the pH of the solution became 4.33. […] After the treatment the biofilms were harvested mechanically, by scraping with a sterile scalpel, from the flow chambers and plated on LB plates for determination of viable counts.

[2] = test system: static P. aeruginosa biofilms; assay: static 24 hour old biofilm in microtiter dishes, CFU after treatment; format: cell-based; settings: for antimicrobial effect on biofilm (CFU): 0.5% acetic acid
From the text: AB minimal medium without acetic acid adjusted to different pH values was used as control.
AB minimal medium supplemented with increasing concentrations of tobramycin served as control. The biofilm were harvested and plated on LB plates to determine the CFU after treatment (For visual appearance “no growth” is arbitrarily given a CFU value of 2).
AB minimal medium without acetic acid, but supplemented with increasing concentrations of tobramycin served as control.
The wild-type P. aeruginosa PAO1 used for the planktonic and biofilm experiments was obtained from the Pseudomonas Genetic Stock Center (www.pseudomonas.med.ecu.edu, strain PAO0001). The wild-type S. aureus 8325-4, used for planktonic and biofilm experiments was described by Novick, R. P. 1967.
For plating, Luria broth (LB) medium mix with 2.0% agar was used. For all experiments including bacterial biofilms, AB minimal medium supplemented with glucose was used except if different is mentioned.
(§2) The static biofilm setup is based on biofilms growing in microtiter dishes with AB minimal medium containing 0.3 mM glucose as described by O'toole et al (1999). Planktonic cultures were grown in shake flasks at 37° C.
(§3) Static biofilm tolerance to acetic acid was assessed by exchanging the AB minimal medium of 24 h old biofilms with AB minimal medium supplemented with different concentrations of acetic acid or HCl as control. To raise the pH of either acetic acid or HCl, NaOH was added in different concentrations.
(§4) To elucidate a synergistic antimicrobial effect of acetic acid and antibiotics, static biofilms of P. aeruginosa were grown for 24 hours prior to subsequent treatment with increasing concentrations of tobramycin and 0.5% acetic acid in the pH interval 3-6.85. The pH was adjusted by supplementing the AB minimal medium with either HCl or NaOH.

[3] = test system: clinical non-mucoid P. aeruginosa isolate; settings: 0.5% acetic acid, pH below 4.76
Description: as §2, §3, §4

[4] = test system: clinical mucoid P. aeruginosa isolate; settings: 0.5% acetic acid, pH below 4.76
Description: as §2, §3, §4

[5] = test system: S. aureus biofilms; settings: for eradication of mature biofilm (viability on LB plates): 24 hours
From the text: as §1

[6] = 0.5% acetic acid, AB minimal medium, pH 4.33
[7] = 1.0% acetic acid, AB minimal medium, pH 4.33

## Cl [HCl, reference compound]
[1]; AB minimal medium adjusted to pH 4.33 using HCl
  eradication of mature biofilm (viability on LB plates): no effect

## NC[C@H]1O[C@H](O[C@H]2[C@H](O)[C@@H](O[C@H]3O[C@H](CO)[C@@H](O)[C@H](N)[C@H]3O)[C@H](N)C[C@@H]2N)[C@H](N)C[C@@H]1O [Tobramycin, tobramycin, reference compound]
[2]; tobramycin alone at concentrations above 12.5 μg/ml
  reduction of bacterial viability: 5 fold

## CC(=O)O [acetic acid]
[3]
  eradication of biofilm (CFU): eradicates the biofilms
[4]
  eradication of biofilm (CFU): eradicates the biofilms
[5]; [6]
  eradication of mature biofilm (viability on LB plates): reduced the number of viable cells
[5]; 1.0% acetic acid in sterile miliQ water
  eradication of mature biofilm: Complete eradication
[5]; [7]
  eradication of mature biofilm (viability on LB plates): complete eradication
  time to complete killing of all bacteria: 3 h
[2]
  effect of acetic acid alone on biofilm: decreasing
[2]; 0.5% acetic acid alone, pH 6.85
  antibacterial effect on biofilm (CFU): no antibacterial effect
[2]; pH 5
  antimicrobial effect on biofilm (CFU): reduced effect
[2]; pH 5.5 and above
  antimicrobial effect on biofilm (CFU): no effect
[2]; pH interval 3-4.76
  antimicrobial effect on biofilm (CFU): eradicated biofilms
[1]; 0.5% acetic acid in sterile miliQ water
  eradication of mature biofilm: Complete eradication
[1]; [6]
  eradication of mature biofilm (viability on LB plates): completely eradicated
  time to complete killing of all bacteria: 3 h
[1]; [7]
  eradication of mature biofilm (viability on LB plates): completely eradicated
